The values below come from ChEMBL document CHEMBL1201862, “PubChem BioAssay data set” (2004).

What all share (assay): DTP human tumour cell line panel, 48 h
Assay [1] deals with TK-10.
Assay [2] relates to HCT-15.
Assay [3] deals with SK-MEL-28.
Assay [4] has as its system 786-0.
Assay [5] has as its system A498.
Assay [6] relates to OVCAR-5.
Assay [7] has as its system SK-OV-3.
For assay [8], the system named is SF-295.
The test system of assay [9] is U-251.
For assay [10], the system named is MOLT-4.
In assay [11] the test system is UACC-257.
The test system of assay [12] is CAKI-1.
For assay [13], the system named is SK-MEL-5.
The test system of assay [14] is A549.
The subject of assay [15] is COLO 205.
The test system of assay [16] is HCT-116.
The test system of assay [17] is NCI-H226.

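Each compound was tested at five concentrations against cells in 96-well plates for 48 hours. Abbreviation: GI50, concentration required for 50% inhibition of growth.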 The source made the active and inactive calls. No stated cut-off is given here; in the data, active = GI50 up to about 1.1 µM and inactive = higher.

`Cc1nc(Nc2ccc(Cl)cc2)sc1C(=O)Nc1cccc2c(=O)[nH][nH]c(=O)c12`: the GI50 (usually the concentration that inhibits growth by half) in assay [1] is > 100 µM (inactive); in [2], 21.8 µM; in assay [3], 52.4 µM (inactive); in [4], 19 µM (inactive); in assay [5], 22.8 µM (inactive); in assay [6], 36.9 µM (inactive). Besides, the GI50 in assay [7] is 52.6 µM (inactive); in assay [8], 24.7 µM (inactive); in assay [9], 34.3 µM (inactive); in [10], 19 µM (inactive); in assay [11], 96.8 µM (inactive); in [12] it was 33.2 µM (inactive). The GI50 is 2.52 µM (inactive) in [13]; 33.1 µM (inactive) in [14]; 16 µM (inactive) in [15]; 24 µM (inactive) in assay [16]; 83.6 µM (inactive) in assay [17].
Turning to `NNC(=S)N/N=C(/C(=O)Nc1ccc([N+](=O)[O-])cc1)c1nc2ccc([N+](=O)[O-])cc2nc1O`, the GI50 in [1] was > 100 µM (inactive); in assay [2] it was 74.6 µM; in [3], > 100 µM (inactive); in assay [4] it was > 100 µM (inactive); in assay [5], > 100 µM (inactive); in [6] it was > 100 µM (inactive). In addition, the GI50 in assay [7], in assay [8], in [9], in assay [10], in assay [11] and in [12] was > 100 µM (inactive) throughout. Moreover, the GI50 is 45.5 µM (inactive) in [13]; > 100 µM (inactive) in assay [14]; > 100 µM (inactive) in assay [15]; > 100 µM (inactive) in [16]; > 100 µM (inactive) in assay [17].
`CC1=CCP(C(F)(F)F)P(C(F)(F)F)C1` (stereo unspecified): the GI50 in assay [1] was > 100 µM (inactive); in assay [2], greater than 100 µM; in assay [3], > 100 µM (inactive); in [4], > 100 µM (inactive); in assay [5] it was > 100 µM (inactive); in assay [6] it was > 100 µM (inactive). Moreover, the GI50 in assay [7], in assay [8], in assay [9], in assay [10], in [11] and in assay [12] was > 100 µM (inactive) throughout. Besides, the GI50 in assay [13], in assay [14], in [15], in assay [16] and in assay [17] was > 100 µM (inactive) in each case.
For `c1ccc2c(c1)cc1n2CC2CN=NC12` (stereo unspecified), the GI50 in assay [2] is greater than 100 µM; in assay [3] it was > 100 µM (inactive); in assay [4], > 100 µM (inactive); in [5], > 100 µM (inactive); in assay [6], > 100 µM (inactive); in [7] it was > 100 µM (inactive). The GI50 in assay [8], in assay [9], in assay [10], in assay [11], in [12] and in assay [13] was > 100 µM (inactive) each time. Further, the GI50 in assay [14], in assay [16] and in assay [17] was > 100 µM (inactive) throughout.
`O=S(=O)(C/C(=N\O)c1ccccc1)c1ccccc1`: the GI50 in assay [1] is > 100 µM (inactive); in assay [2], greater than 100 µM; in assay [3] it was > 100 µM (inactive); in assay [4], > 100 µM (inactive); in assay [5], > 100 µM (inactive); in assay [6], > 100 µM (inactive). The GI50 in assay [7], in assay [8], in assay [9], in [10], in assay [11] and in assay [12] was > 100 µM (inactive) each time. The GI50 in [13], in assay [14], in assay [15], in assay [16] and in assay [17] was > 100 µM (inactive) in each case.
For the compound `CC1=C(C(=O)Nc2ccc([N+](=O)[O-])cc2)C(c2ccccc2F)C(C(=O)Nc2ccc([N+](=O)[O-])cc2)=C(C)N1`, the GI50 in assay [1] was 23.7 µM (inactive); in assay [3] it was 20.7 µM (inactive); in [4] it was 20.8 µM (inactive); in [5], 5.48 µM (inactive); in [6], 35.1 µM (inactive); in assay [7], 29.8 µM (inactive). The GI50 is 20.3 µM (inactive) in assay [8]; 14.9 µM (inactive) in assay [9]; 3.61 µM (inactive) in assay [10]; 15 µM (inactive) in assay [11]; 18.2 µM (inactive) in assay [12]; 13.9 µM (inactive) in assay [13]. The GI50 in [14] is 9.64 µM (inactive); in assay [15] it was 13 µM (inactive); in assay [16] it was 5.13 µM (inactive); in assay [17], 14 µM (inactive).
Turning to `CCOC(=O)/C(=C/c1cccc(Cl)c1)N(CC)CC`, the GI50 in [1] was > 100 µM (inactive); in assay [2] it was 38.7 µM; in assay [3] it was 90.8 µM (inactive); in assay [4], 67.9 µM (inactive); in [5] it was > 100 µM (inactive); in assay [6], > 100 µM (inactive). Further, the GI50 in assay [7] is 35.1 µM (inactive); in assay [8], 46.3 µM (inactive); in [9] it was 43.3 µM (inactive); in assay [10], 87.7 µM (inactive); in assay [11], 55.8 µM (inactive); in assay [12], 50.5 µM (inactive). Further, the GI50 is 41.1 µM (inactive) in assay [13]; 36.2 µM (inactive) in assay [14]; > 100 µM (inactive) in [15]; 37.4 µM (inactive) in assay [16]; 37.8 µM (inactive) in [17].
Take `COc1ccc(O)cc1` [MEQUINOL]: the GI50 was > 100 µM (inactive) in [1]; 24.5 µM in assay [2]; > 100 µM (inactive) in assay [3]; 92 µM (inactive) in assay [4]; > 100 µM (inactive) in assay [5]; 35.4 µM (inactive) in [6]. Moreover, the GI50 in [7] is > 100 µM (inactive); in assay [9] it was > 100 µM (inactive); in assay [10] it was 74.3 µM (inactive); in [11], > 100 µM (inactive); in assay [12] it was 94.4 µM (inactive); in assay [13] it was 42.8 µM (inactive). Also, the GI50 in [14], in [15], in [16] and in [17] was > 100 µM (inactive) throughout.
As to `O=C1OC(=O)c2c1c(-c1ccccc1)nc1ccccc21`, the GI50 in assay [1] is > 100 µM (inactive); in assay [2], greater than 100 µM; in assay [3], > 100 µM (inactive); in assay [4], > 100 µM (inactive); in assay [5], > 100 µM (inactive); in assay [7], > 100 µM (inactive). For the same compound, the GI50 in assay [8], in [9], in [10], in assay [11], in assay [12] and in [13] was > 100 µM (inactive) each time. The GI50 in [14], in assay [15], in assay [16] and in assay [17] was > 100 µM (inactive) throughout.
For the compound `CC(C)c1ccccc1NC(=O)C(=O)Cc1nc2ccccc2s1`, the GI50 in assay [1] was > 100 µM (inactive); in assay [2], greater than 100 µM; in assay [3], > 100 µM (inactive); in assay [4] it was > 100 µM (inactive); in assay [5] it was > 100 µM (inactive); in assay [7], > 100 µM (inactive). In addition, the GI50 in assay [8], in [9], in [10], in assay [11], in assay [12] and in [13] was > 100 µM (inactive) throughout. The GI50 in assay [14], in assay [15], in [16] and in [17] was > 100 µM (inactive) each time.
In the case of `O=C(c1ccccc1)n1cc(/C=C/[N+](=O)[O-])c2ccccc21`, the GI50 in assay [1] is > 100 µM (inactive); in [2], 19.5 µM; in assay [3], 18.5 µM (inactive); in assay [4], 20.2 µM (inactive); in assay [5] it was > 100 µM (inactive); in assay [6] it was > 100 µM (inactive). In addition, the GI50 is > 100 µM (inactive) in assay [7]; 42 µM (inactive) in assay [8]; 18.5 µM (inactive) in assay [9]; 17.2 µM (inactive) in [10]; 21.2 µM (inactive) in assay [11]; 84.9 µM (inactive) in [12]. In addition, the GI50 in assay [13] was 34.8 µM (inactive); in assay [14] it was 85.1 µM (inactive); in [15] it was 24.7 µM (inactive); in [16] it was 17.9 µM (inactive).
`COc1ccc(NC(=O)/C(=N/O)C(C)=O)cc1`: the GI50 in assay [1] was > 100 µM (inactive); in assay [2] it was 17.5 µM; in assay [3] it was > 100 µM (inactive); in assay [4], 45.1 µM (inactive); in assay [5], > 100 µM (inactive); in assay [6], > 100 µM (inactive). Also, the GI50 in assay [7], in assay [8], in assay [9], in [10], in assay [11] and in assay [12] was > 100 µM (inactive) in each case. In addition, the GI50 in assay [13] is > 100 µM (inactive); in assay [14], > 100 µM (inactive); in [16], 96.8 µM (inactive); in [17] it was > 100 µM (inactive).
